In patent publication US8012956B2, “Tropane compounds” (Exelixis, Inc., priority 2007, dated 2011):
pIC50: −log10 of the molar value.

Each molecule was assayed against HSP90 (Homo sapiens, UniProt P07900) (assay: HSP90 inhibition (HSP90 IC50)).
Type: biochemical
Work on CC(=O)c1ccc(N2C3CCC2CC(NC(=O)c2cc(N[C@H]4CC[C@H](O)CC4)c(C(N)=O)cc2C)C3)nc1 (stereo partly drawn) [N-[8-(5-acetylpyridin-2-yl)-8-azabicyclo[3.2.1]oct-3-endo-yl]-5-[(trans-4-hydroxycyclohexyl)amino]-2-methylbenzene-1,4-dicarboxamide] yielded a pIC50 of over 6.30. With CCN1CC(NC(=O)c2ccc(N3[C@@H]4CC[C@H]3C[C@@H](NC(=O)c3cc(C)c(C(N)=O)cc3C)C4)nc2)C1 [N-[8-(5-{[(1-ethylazetidin-3-yl)amino]carbonyl}pyridin-2-yl)-8-azabicyclo[3.2.1]oct-3-endo-yl]-2,5-dimethylbenzene-1,4-dicarboxamide] the pIC50 was over 6.30. In the case of CCN1CCC(NC(=O)c2ccc(N3[C@@H]4CC[C@H]3C[C@@H](NC(=O)c3cc(C)c(C(N)=O)cc3C)C4)nc2)CC1 [N-[8-(5-{[(1-ethylpiperidin-4-yl)amino]carbonyl}pyridin-2-yl)-8-azabicyclo[3.2.1]oct-3-endo-yl]-2,5-dimethylbenzene-1,4-dicarboxamide], the pIC50 was 6.00 to 6.30. In the case of NC(=O)c1ccc(C(=O)N[C@H]2C[C@H]3CC[C@@H](C2)N3c2ccc(C(=O)NCc3ccccc3)cn2)cc1 [N-[8-(5-{[(phenylmethyl)amino]carbonyl}pyridin-2-yl)-8-azabicyclo[3.2.1]oct-3-endo-yl]benzene-1,4-dicarboxamide], the pIC50 was over 6.30. NC(=O)c1ccc(C(=O)N[C@H]2C[C@H]3CC[C@@H](C2)N3c2ccc(C(=O)NCc3cccnc3)cn2)cc1 [N-[8-(5-{[(pyridin-3-ylmethyl)amino]carbonyl}pyridin-2-yl)-8-azabicyclo[3.2.1]oct-3-endo-yl]benzene-1,4-dicarboxamide] was tested, and the pIC50 was over 6.30. COc1cccc(C(=O)NC2CC3CCC(C2)N3c2ccc(C(=O)N[C@H](C)C(C)C)cn2)c1C (stereo partly drawn) [N-[(1R)-1,2-dimethylpropyl]-6-[3-endo-({[2-methyl-3-(methyloxy)phenyl]carbonyl}amino)-8-azabicyclo[3.2.1]oct-8-yl]pyridine-3-carboxamide] was tested, and the pIC50 was 5.00 to 5.70. COc1cccc(C(=O)NC2CC3CCC(C2)N3c2ccc(C(=O)N[C@@H]3CC4CCC3C4)cn2)c1C (stereo partly drawn) [N-[(1R,2R,4S)-bicyclo[2.2.1]hept-2-yl]-6-[3-endo-({[2-methyl-3-(methyloxy)phenyl]carbonyl}amino)-8-azabicyclo[3.2.1]oct-8-yl]pyridine-3-carboxamide] showed a pIC50 of 5.70 to 6.00. COc1cccc(C(=O)NC2CC3CCC(C2)N3c2ccc(C(=O)N[C@@H](C)C(C)C)cn2)c1C (stereo partly drawn) [N-[(1S)-1,2-dimethylpropyl]-6-[3-endo-({[2-methyl-3-(methyloxy)phenyl]carbonyl}amino)-8-azabicyclo[3.2.1]oct-8-yl]pyridine-3-carboxamide] showed a pIC50 of 5.70 to 6.00. For COc1cccc(C(=O)NC2CC3CCC(C2)N3c2ccc(C(=O)N[C@@H](C)c3ccc(Cl)cc3)cn2)c1C (stereo partly drawn) [N-[(1S)-1-(4-chlorophenyl)ethyl]-6-[3-endo-({[2-methyl-3-(methyloxy)phenyl]carbonyl}amino)-8-azabicyclo[3.2.1]oct-8-yl]pyridine-3-carboxamide], the pIC50 was over 6.30. CCN(CC)CCOc1ccc([C@H](C)NC(=O)c2ccc(N3C4CCC3CC(NC(=O)c3cccc(OC)c3C)C4)nc2)c(F)c1 (stereo partly drawn) [N-[(1S)-1-(4-{[2-(diethylamino)ethyl]oxy}-2-fluorophenyl)ethyl]-6-[3-endo-({[2-methyl-3-(methyloxy)phenyl]carbonyl}amino)-8-azabicyclo[3.2.1]oct-8-yl]pyridine-3-carboxamide] gave a pIC50 of over 6.30. Molecule CCN(CC)CCOc1ccc([C@H](C)NC(=O)c2ccc(N3C4CCC3CC(NC(=O)c3cccc(OC)c3C)C4)nc2)cc1 (stereo partly drawn) [N-[(1S)-1-(4-{[2-(diethylamino)ethyl]oxy}phenyl)ethyl]-6-[3-endo-({[2-methyl-3-(methyloxy)phenyl]carbonyl}amino)-8-azabicyclo[3.2.1]oct-8-yl]pyridine-3-carboxamide] has a pIC50 of over 6.30. Work on COC[C@H](C)NC(=O)c1ccc(N2C3CCC2CC(NC(=O)c2cccc(OC)c2C)C3)nc1 (stereo partly drawn) [N-[(1S)-1-methyl-2-(methyloxy)ethyl]-6-[3-endo-({[2-methyl-3-(methyloxy)phenyl]carbonyl}amino)-8-azabicyclo[3.2.1]oct-8-yl]pyridine-3-carboxamide] yielded a pIC50 of 5.70 to 6.00. With COc1cccc(C(=O)NC2CC3CCC(C2)N3c2ccc(C(=O)N[C@@H](C)C(N)=O)cn2)c1C (stereo partly drawn) [N-[(1S)-2-amino-1-methyl-2-oxoethyl]-6-[3-endo-({[2-methyl-3-(methyloxy)phenyl]carbonyl}amino)-8-azabicyclo[3.2.1]oct-8-yl]pyridine-3-carboxamide] the pIC50 was 6.00 to 6.30. With COc1cccc(C(=O)NC2CC3CCC(C2)N3c2ccc(C(=O)N[C@@H](C)CO)cn2)c1C (stereo partly drawn) [N-[(1S)-2-hydroxy-1-methylethyl]-6-[3-endo-({[2-methyl-3-(methyloxy)phenyl]carbonyl}amino)-8-azabicyclo[3.2.1]oct-8-yl]pyridine-3-carboxamide] the pIC50 was 5.70 to 6.00. For COc1cccc(C(=O)NC2CC3CCC(C2)N3c2ccc(C(=O)N[C@H]3CCCC[C@@H]3O)cn2)c1C (stereo partly drawn) [N-[(1S,2S)-2-hydroxycyclohexyl]-6-[3-endo-({[2-methyl-3-(methyloxy)phenyl]carbonyl}amino)-8-azabicyclo[3.2.1]oct-8-yl]pyridlne-3-carboxamide], the pIC50 was 5.00 to 5.70. COc1cccc(C(=O)NC2CC3CCC(C2)N3c2ccc(C(=O)NCC3COC(C)(C)O3)cn2)c1C (stereo not drawn) [N-[(2,2-dimethyl-1,3-dioxolan-4-yl)methyl]-6-[3-endo-({[2-methyl-3-(methyloxy)phenyl]carbonyl}amino)-8-azabicyclo[3.2.1]oct-8-yl]pyridine-3-carboxamide] was tested, and the pIC50 was 5.00 to 5.70. Molecule COc1cccc(C(=O)N[C@H]2C[C@H]3CC[C@@H](C2)N3c2ccc(C(=O)NCc3ccc(F)cc3F)cn2)c1C [N-[(2,4-difluorophenyl)methyl]-6-[3-endo-({[2-methyl-3-(methyloxy)phenyl]carbonyl}amino)-8-azabicyclo[3.2.1]oct-8-yl]pyridine-3-carboxamide] has a pIC50 of over 6.30. Work on COc1cccc(C(=O)N[C@H]2C[C@H]3CC[C@@H](C2)N3c2ccc(C(=O)NCc3cc(F)ccc3F)cn2)c1C [N-[(2,5-difluorophenyl)methyl]-6-[3-endo-({[2-methyl-3-(methyloxy)phenyl]carbonyl}amino)-8-azabicyclo[3.2.1]oct-8-yl]pyridine-3-carboxamide] yielded a pIC50 of 6.00 to 6.30. Work on COc1cccc(C(=O)N[C@H]2C[C@H]3CC[C@@H](C2)N3c2ccc(C(=O)NCc3c(F)cccc3F)cn2)c1C [N-[(2,6-difluorophenyl)methyl]-6-[3-endo-({[2-methyl-3-(methyloxy)phenyl]carbonyl}amino)-8-azabicyclo[3.2.1]oct-8-yl]pyridine-3-carboxamide] yielded a pIC50 of over 6.30. Work on COc1cccc(C(=O)N[C@H]2C[C@H]3CC[C@@H](C2)N3c2ccc(C(=O)NCc3c(F)ccc(F)c3Cl)cn2)c1C [N-[(2-chloro-3,6-difluorophenyl)methyl]-6-[3-endo-({[2-methyl-3-(methyloxy)phenyl]carbonyl}amino)-8-azabicyclo[3.2.1]oct-8-yl]pyridine-3-carboxamide] yielded a pIC50 of over 6.30. COc1cccc(C(=O)N[C@H]2C[C@H]3CC[C@@H](C2)N3c2ccc(C(=O)NCc3c(F)ccc(C)c3Cl)cn2)c1C [N-[(2-chloro-6-fluoro-3-methylphenyl)methyl]-6-[3-endo-({[2-methyl-3-(methyloxy)phenyl]carbonyl}amino)-8-azabicyclo[3.2.1]oct-8-yl]pyridine-3-carboxamide] was tested, and the pIC50 was 6.00 to 6.30. In the case of COc1cccc(C(=O)N[C@H]2C[C@H]3CC[C@@H](C2)N3c2ccc(C(=O)NCc3c(F)cccc3Cl)cn2)c1C [N-[(2-chloro-6-fluorophenyl)methyl]-6-[3-endo-({[2-methyl-3-(methyloxy)phenyl]carbonyl}amino)-8-azabicyclo[3.2.1]oct-8-yl]pyridine-3-carboxamide], the pIC50 was over 6.30. In the case of COc1cccc(C(=O)N[C@H]2C[C@H]3CC[C@@H](C2)N3c2ccc(C(=O)NCc3ccccc3Cl)cn2)c1C [N-[(2-chlorophenyl)methyl]-6-[3-endo-({[2-methyl-3-(methyloxy)phenyl]carbonyl}amino)-8-azabicyclo[3.2.1]oct-8-yl]pyridine-3-carboxamide], the pIC50 was over 6.30. COc1cccc(C(=O)N[C@H]2C[C@H]3CC[C@@H](C2)N3c2ccc(C(=O)NCc3ccccc3F)cn2)c1C [N-[(2-fluorophenyl)methyl]-6-[3-endo-({[2-methyl-3-(methyloxy)phenyl]carbonyl}amino)-8-azabicyclo[3.2.1]oct-8-yl]pyridine-3-carboxamide] was tested, and the pIC50 was over 6.30. Work on COc1cccc(C(=O)NC2CC3CCC(C2)N3c2ccc(C(=O)NC[C@H](C)O)cn2)c1C (stereo partly drawn) [N-[(2S)-2.hydroxypropyl]-6-[3-endo-({[2-methyl-3-(methyloxy)phenyl]carbonyl}amino)-8-azabicyclo[3.2.1]oct-8-yl]pyridine-3-carboxamide] yielded a pIC50 of 5.00 to 5.70. COc1cccc(C(=O)N[C@H]2C[C@H]3CC[C@@H](C2)N3c2ccc(C(=O)NCc3ccc(F)c(F)c3)cn2)c1C [N-[(3,4-difluorophenyl)methyl]-6-[3-endo-({(2-methyl-3-(methyloxy)phenyl]carbonyl}amino)-8-azablcyclo[3.2.1]oct-8-yl]pyridine-3-carboxamide] gave a pIC50 of over 6.30. With COc1cccc(C(=O)N[C@H]2C[C@H]3CC[C@@H](C2)N3c2ccc(C(=O)NCc3cccc(Cl)c3)cn2)c1C [N-[(3-chlorophenyl)methyl]-6-[3-endo-({[2-methyl-3-(methyloxy)phenyl]carbonyl}amino) 8-azabicyclo[3.2.1]oct-8-yl]pyridine-3-carboxamide] the pIC50 was 5.00 to 5.70. Work on COc1cccc(C(=O)N[C@H]2C[C@H]3CC[C@@H](C2)N3c2ccc(C(=O)NCc3cccc(F)c3)cn2)c1C [N-[(3-fluorophenyl)methyl]-6-[3-endo-({[2-methyl-3-(methyloxy)phenyl]carbonyl}amino)-8-azabicyclo[3.2.1]oct-8-yl]pyridine-3-carboxamide] yielded a pIC50 of 5.70 to 6.00. CCN(CC)CCOc1cccc(CNC(=O)c2ccc(N3[C@@H]4CC[C@H]3C[C@@H](NC(=O)c3cccc(OC)c3C)C4)nc2)c1 [N-[(3-{[2-(diethylamino)ethyl]oxy}pheny)methyl]-6-[3-endo-({[2-methyl-3-(methyloxy)phenyl]carbonyl}amino)-8-azabicyclo[3.2.1]oct-8-yl]pyridine-3-carboxamide] gave a pIC50 of over 6.30.
